Measured values published in US20040106148A1, “Polypeptides” (priority 2000, published 2004).

Target: T1, human TAPP1 C-terminal PH domain (CT-PH TAPP1, residues 95 to 404), GST fusion (Homo sapiens, UniProt Q9HB21, T320A)
T1 construct: made in house; host or cells: human embryonic kidney 293 cells (pEBG-2T)
Assay: Surface plasmon resonance (BIACore), GST fusion binding to phosphoinositide in supported lipid monolayer
Details: supported phosphatidylcholine monolayers, 1:1 binding model, read-out: Apparent Kd
Excerpt: Cloning of PH domains and preparation of expression constructs. All the human and mouse EST's were obtained from the I.M.A.G.E. Consortium and sequenced. The plant EST (accession number T04439) encoding a full length clone of AtPH1 was obtained from the Arabidopsis Biological Research. Centre (Ohio University). The sequence of each EST was verified and the full length PH domain of each EST was amplified by PCR using the Hi-fidelity PCR system with primers designed to incorporate a Kozak site, an initiating ATG codon followed by a myc epitope tag and a stop codon after the PH domain. […]
Kinetic analyses of the interactions between the GST PH domain fusions and the polyphosphoinositides were made using surface plasmon resonance based procedures as described previously, with the following modifications. […] Data were analysed using the bimolecular interaction model and the global fitting feature of the BIAevaluation 3 software for several sensorgrams at different protein concentrations. […] The relative binding affinities of each protein relative to the binding of full length GST-TAPP1 to PtdIns(3,4)P2 were also calculated.
We studied the specificity and affinity of interaction of the PH domains for phosphoinositide lipids using either a “protein-lipid overlay” assay (FIG. 2) or the more quantitative surface plasmon resonance based approach (Table 2). […]

T1 sequence (Q9HB21 95-404 T320A): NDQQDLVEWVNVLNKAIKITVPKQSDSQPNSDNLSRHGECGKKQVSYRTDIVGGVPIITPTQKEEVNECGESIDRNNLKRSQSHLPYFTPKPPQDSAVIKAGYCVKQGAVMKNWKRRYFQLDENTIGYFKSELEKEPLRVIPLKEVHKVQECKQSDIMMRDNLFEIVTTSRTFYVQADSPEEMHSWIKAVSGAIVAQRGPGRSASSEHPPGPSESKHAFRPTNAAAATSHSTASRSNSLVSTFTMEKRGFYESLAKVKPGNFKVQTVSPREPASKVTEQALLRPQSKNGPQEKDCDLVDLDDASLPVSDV

- Kd: 27 nM
Structure (SMILES): CCCCCCCCCCCCCCCC(=O)OC[C@H](COP(=O)(O)O[C@H]1[C@H](O)[C@@H](O)[C@H](OP(=O)(O)O)[C@@H](OP(=O)(O)O)[C@H]1O)OC(=O)CCCCCCCCCCCCCCC [PtdIns(3,4)P2]
